Laboratory results from patent US20110086759A1, “CHEMICAL COMPOUNDS” (SYNGENTA CROP PROTECTION, INC., priority 2007, published 2011).

Legend:
Type in all cases: in vivo
[1] = system: Alopecurus myosuroides (ALOMY); experiment: Pre-emergence biological efficacy, glasshouse pot test; settings: 312 h, pre-emergence, 1,000 g/ha, evaluated after 13 days (100=total damage; 0=no damage), read-out: Percentage damage ALOMY
How it was run: (§1)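 Glasshouse pot test: spray on soil one day after sowing, 1000 or 250 g/ha. Conditions 24/16 °C day/night, 14 h light, 65% humidity. Plant damage scored 0–100 at 13 days.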

[2] = system: Ipomea hederaceae (IPOHE); experiment: as above; settings: Ipomoea hederacea, 312 h; pre-emergence, 1,000 g/ha, evaluated after 13 days (100=total damage; 0=no damage); read-out: Percentage damage IPOHE
How it was run: as §1

[3] = system: Amaranthus retoflexus (AMARE); experiment: as above; settings: Amaranthus retroflexus, 312 h; pre-emergence, 1,000 g/ha, evaluated after 13 days (100=total damage; 0=no damage); read-out: Percentage damage AMARE
How it was run: as §1

Setaria faberi (SETFA) [4] = experiment: as above; settings: 312 h, pre-emergence, 1,000 g/ha, evaluated after 13 days (100=total damage; 0=no damage), read-out: Percentage damage SETFA
How it was run: as §1

Solanum nigrum (SOLNI) [5] = experiment: as above; settings: 312 h, pre-emergence, 1,000 g/ha, evaluated after 13 days (100=total damage; 0=no damage), read-out: Percentage damage SOLNI
How it was run: as §1

[6] = system: Echinochloa crus-galli (ECHCG); experiment: as above; settings: 312 h, pre-emergence, 1,000 g/ha, evaluated after 13 days (100=total damage; 0=no damage), read-out: Percentage damage ECHCG
How it was run: as §1

[7] = system: Alopecurus myosuroides (ALOMY); experiment: Post-emergence biological efficacy, glasshouse pot test; settings: 312 h, post-emergence, 1,000 g/ha, evaluated after 13 days (100=total damage; 0=no damage), read-out: Percentage damage caused to weed species, ALOMY
How it was run: (§2)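 Pot-grown weeds were sprayed 8 days after sowing with test compound in acetone/water (50:50) with 0.5% Tween 20 at 1000 or 250 g/ha. Glasshouse at 24/16° C day/night, 14 h light, 65% humidity. Damage scored 0-100 (100 = total damage) after 13 days.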

[8] = system: Ipomea hederaceae (IPOHE); experiment: as above; settings: Ipomoea hederacea, 312 h; post-emergence, 1,000 g/ha, evaluated after 13 days (100=total damage; 0=no damage); read-out: Percentage damage caused to weed species, IPOHE
How it was run: as §2

[9] = system: Amaranthus retoflexus (AMARE); experiment: as above; settings: Amaranthus retroflexus, 312 h; post-emergence, 1,000 g/ha, evaluated after 13 days (100=total damage; 0=no damage); read-out: Percentage damage caused to weed species, AMARE
How it was run: as §2

Setaria faberi (SETFA) [10] = experiment: as above; settings: 312 h, post-emergence, 1,000 g/ha, evaluated after 13 days (100=total damage; 0=no damage), read-out: Percentage damage caused to weed species, SETFA
How it was run: as §2

Solanum nigrum (SOLNI) [11] = experiment: as above; settings: 312 h, post-emergence, 1,000 g/ha, evaluated after 13 days (100=total damage; 0=no damage), read-out: Percentage damage caused to weed species, SOLNI
How it was run: as §2

[12] = system: Echinochloa crus-galli (ECHCG); experiment: as above; settings: 312 h, post-emergence, 1,000 g/ha, evaluated after 13 days (100=total damage; 0=no damage), read-out: Percentage damage caused to weed species, ECHCG
How it was run: as §2

Row | SMILES | pest or weed control at 1000 g/ha [1] [%] | pest or weed control at 1000 g/ha [2] [%] | pest or weed control at 1000 g/ha [3] [%] | pest or weed control at 1000 g/ha (Setaria faberi (SETFA) [4]) [%] | pest or weed control at 1000 g/ha (Solanum nigrum (SOLNI) [5]) [%] | pest or weed control at 1000 g/ha [6] [%] | pest or weed control at 1000 g/ha [7] [%] | pest or weed control at 1000 g/ha [8] [%] | pest or weed control at 1000 g/ha [9] [%] | pest or weed control at 1000 g/ha (Setaria faberi (SETFA) [10]) [%] | pest or weed control at 1000 g/ha (Solanum nigrum (SOLNI) [11]) [%] | pest or weed control at 1000 g/ha [12] [%]
1 | COC(=O)c1nc(C2CC2)nc(NC(CO)C2CCOCC2)c1Cl (stereo not drawn) [Compound 4-202, 5-Chloro-2-cyclopropyl-4-(2-hydroxy-1-tetrahydropyran-4-yl-ethylamino)-6-methoxycarbonyl-pyrimidine] | 20 | 100 | 60 | 30 | 70 | 30 | 10 | 50 | 100 | 30 | 80 | 0
2 | COC(=O)c1nc(C2CC2)nc(NC(CO)c2ccccc2)c1Cl (stereo not drawn) [Compound 4-203, 5-Chloro-2-cyclopropyl-4-(2-hydroxy-1-phenyl-ethylamino)-6-methoxycarbonyl-pyrimidine] | 30 | 100 | 100 | 60 | 80 | 60 | 40 | 50 | 100 | 40 | 80 | 30
3 | COC(=O)c1nc(C2CC2)nc(NC(CS(C)(=O)=O)c2ccc(OC)cc2)c1Cl (stereo not drawn) [Compound 4-205, 5-Chloro-2-cyclopropyl-6-methoxycarbonyl-4-[1-(4-methoxy-phenyl)-2-methylsulphonyl-ethylamino]-pyrimidine] | 0 | 0 | 0 | 0 | 0 | 0 | 0 | 20 | 20 | 0 | 10 | 0
4 | COC(=O)c1nc(C2CC2)nc(NC(C(=O)OC)c2ccccc2)c1Cl (stereo not drawn) [Compound 4-210, 5-Chloro-2-cyclopropyl-6-methoxycarbonyl-4-(1-methoxy-carbonyl-1-phenyl-methylamino)-pyrimidine] | 20 | 100 | 100 | 20 | 90 | 50 | 60 | 40 | 50 | 80 | 40 | 60
5 | CCOC(=O)C(Nc1nc(C2CC2)nc(C(=O)OC)c1Cl)c1ccccc1 (stereo not drawn) [Compound 4-214, 5-Chloro-2-cyclopropyl-4-[(1-ethoxycarbonyl-1-phenyl)-methyl-amino]-6-methoxy-carbonylpyrimidine] | 20 | 100 | 100 | 40 | 90 | 60 | 50 | 100 | 100 | 70 | 80 | 70
